Test results published in patent EP2012793B1, “USE OF A TRICYCLIC COMPOUND FOR PREPARING A MEDICAMENT FOR TREATING SKELETAL MUSCLE DEGENERATION OF GENETIC ORIGIN” (Association Française contre les Myopathies, priority 2006, dated 2007).
Structures can show the parent of a compound that is named as a salt.

Key:
[1] = tested on: souche de nématode dépourvue de dystrophine; experiment: Test on dystrophin-deficient nematode strain (model of degenerative myopathy): paralysis phenotype and cytological count of degenerating muscle cells; assay type: in vivo, Caenorhabditis elegans; settings: for Diminution de la dégénérescence en %: untreated = 0; for Pourcentage d'animaux paralysés à J7: untreated = 100
Description: Les composés ont été testés sur une souche de nématode dépourvue de dystrophine (Gieseler et al., Current Biology, 2000, vol. 10, p1092-1097) et (Ségalat, Neuromuscular Disorders, 2002, Suppl: S105-9). Cette souche est utilisée comme modèle de myopathie dégénérative. Dans cette souche, jusqu'à 30% des cellules musculaires servant à la locomotion (muscles longitudinaux) dégénèrent à l'état adulte (7 jours à 15°C), ce qui se traduit par une paralysie progressive des animaux.
Les composés sont administrés par mélange avec la gélose sur laquelle sont cultivés les animaux. Ils pénètrent par diffusion à travers la cuticule des animaux.
L'effet des composés sur la dégénérescence musculaire est évalué par 1) l'observation du phénotype des animaux (paralysie), et 2) par l'examen cytologique de la. dégénérescence musculaire au moyen de marqueurs musculaires : rodamine-phalloidine et anticorps anti-myosine. Cet examen permet de compter le nombre de cellules musculaires en dégénérescence ou mortes (Gieseler et al. , 2000, supra).

[2] = tested on: souris mdx (génotype C57/BL6 mdx5cv); experiment: mdx mouse, histological tests (fibre size dispersion, diaphragm degeneration/necrosis, centronucleated fibres); assay type: in vivo
Description: (§1) Les tests effectués chez la souris sont de plusieurs types : histologiques, fonctionnels sur l'animal entier, et fonctionnels sur muscles disséqués. Les tests sont effectués sur la souris mdx (génotype C57/BL6 mdx5cv), modèle murin de myopathie dégénérative. Ces tests sont notamment détaillés dans les publications suivantes auxquelles on pourra se référer : • De Luca A, et al. Am. J. Pathol. 2005; 166(2), 477-89. • Divet A, etal. Pflugers Arch. 2002 Aug; 444(5), 634-43. Epub 2002 Jul 10. • Rafael JA, et al. Mamm Genome. 2000 Sep; 11(9), 725-8.
(§2) Les composés sont administrés oralement aux souris dans leur nourriture. Les souris sont traitées de l'âge de 2 semaines à 6 semaines. Elles sont testées à 6 semaines.

[3] = tested on: souris mdx (génotype C57/BL6 mdx5cv); settings: treated from 2 to 6 weeks of age
Description: as §1, §2

[4] = tested on: protéolyse du muscle de C. elegans; experiment: C. elegans muscle proteolysis model representative of cachexia (protocol of Zdinak et al.); assay type: in vivo; settings: remaining proteolysis relative to control; strongly reduced
[5] = 0,1 mg/ml in culture agar (0,2-0,3 mM), after 7 days of culture at 15°C
[6] = concentration efficace 0,1 mg/ml in culture agar

With `CN(C)CC/C=C1/c2ccccc2Sc2ccc(Cl)cc21` [Chloroprothixene, chlorprothixene] the “Diminution de la dégénérescence en %” value ([1]; concentration efficace 0,02 mg/ml in culture agar) was 58%.

For `CN(C)CCC=C1c2ccccc2C=Cc2ccccc21` [Cyclobenzaprine, cyclobenzaprine], the “Diminution de la dégénérescence en %” value ([1]; concentration efficace 0,05 mg/ml in culture agar) was 63%, the “Réduction de l'indice de dégénérescence du diaphragme (fibres nécrotiques et fibres centronucléées)” value ([2]; 3mg/jour/kg oral in food, treated from 2 to 6 weeks of age) was 21% and the “Réduction de la dispersion de taille des fibres (marqueur de dégénérescence)” value ([2]; 3mg/jour/kg oral in food, treated from 2 to 6 weeks of age, versus untreated animals) was 52%. For the same compound, the “Augmentation de la force exercée dans test d'agrippement” value ([3]; 3mg/jour/kg oral in food) was 24% and the “Augmentation du score le test d'agrippement” value ([3]; 3mg/jour/kg oral in food) was 40%.

With `CNCCCN1c2ccccc2CCc2ccccc21` [Desipramine chlorhydrate, désipramine] the “Diminution de la dégénérescence en %” value [1, 5] was 58% and the “Pourcentage d'animaux paralysés à J7” value [1, 5] was 58%.

`CN(C)CCCN1c2ccccc2CCc2ccccc21` [Imipramine chlorhydrate, imipramine] was tested, and the “Diminution de la dégénérescence en %” value [1, 5] was 37%, the “Pourcentage d'animaux paralysés à J7” value [1, 5] was 65% and the protéolyse [4] was 20 % de la protéolyse du témoin. The “Augmentation de la tension développée par le muscle EDL sur animaux vivants” value ([3]; 40mg/jour/kg oral in food) was 20%, the “Augmentation du score avec le test d'agrippement” value ([3]; 40mg/jour/kg oral in food) was 48% and the “Augmentation de la tension maximale développée par le muscle isolé” value ([3]; 40mg/jour/kg oral in food, triton-skinned fibre protocol) was 50%.

With `COc1ccc2c(c1)N(C[C@H](C)CN(C)C)c1ccccc1S2` [Methotrimeprazine, méthotriméprazine] the “Diminution de la dégénérescence en %” value [1, 6] was 70%.

`CC(CN(C)C)CN1c2ccccc2Sc2ccccc21` (stereo not shown) [Trimeprazine, triméprazine] was tested, and the “Diminution de la dégénérescence en %” value [1, 6] was 65%.

In the case of `CC(CN(C)C)CN1c2ccccc2CCc2ccccc21` (stereo not shown) [Trimipramine maleate, trimipramine], the nécrose du diaphragme ([2]; 15 mg/kg/jour, test of Raymackers et al., p<5%) is reported as “réduit la nécrose du diaphragme” and the “nombre de fibres centronucléées” value ([2]; 15 mg/kg/jour, test of Shavlakadze et al., p<0,1%) is reported as “réduit”.

For `NCCc1c[nH]c2ccc(O)cc12` [sérotonine], the dégénérescence musculaire ([1]; result in words, concentration not given) was “diminue également la dégénérescence musculaire”.
